One test deals with mature osteoclasts. As to the kind of experiment: Cell-death (apoptosis) inducing activity on mature osteoclasts, number of TRAP-stained multinuclear cells. The test is classed as cell-based, mouse. Conditions: Mus musculus, Osteoclast; RAW264-derived mature osteoclasts, 24 hours incubation, TRAP staining; read-out: ED50 level of cell-death inducing activity to mature osteoclasts, Number of cells. As to the method:
Using 29 different reveromycin A derivatives synthesized as described above, the cell-death inducing activities on the mature osteoclasts and undifferentiated macrophage-like cells derived from a mouse (RAW264 cells) were examined, respectively. The RAW264 cells, a mouse-macrophage cell line, were suspended in a 10% FBS-αMEM (manufactured by Gibco BRL Co., Ltd.) and then 12,000 cells/100 μl were inoculated in a 96-well plate. After 1-hour incubation, 100 μl of a culture medium containing RANKL ([…]) and PD98059 (40 μM) were added (final concentration: RANKL […] and PD98059 20 μM) and then incubated for 4 days to allow the differentiation of the cells to mature osteoclasts (J. Biol. Chem. Vol. 277, pp. 47366-47372 (2002)). Furthermore, on the second day of the culture, the half of the culture medium was replaced with new one. From each well of the plate where the cells were differentiated to the mature osteoclasts, 100 μl/well of the culture medium was removed. […] The apoptosis inducing activity was confirmed by the observation of agglutination of nuclei stained with 10 μM Hoechst 33258 for 10-minututes.

In test [1] the test system is undifferentiated RAW264 cells. As to the kind of experiment: Cell-death inducing activity on undifferentiated RAW264 cells, MTT method. The settings on record: Mus musculus, RAW264.7; 24 hours incubation, MTT; read-out: ED50 level of cell-death inducing activity to undifferentiated RAW264 cells, MTT. The test is classed as cell-based, mouse. As to the method:
The cell-death inducing activities to the undifferentiated RAW264 cells were investigated by the MTT method (J. Immunol. Methods, Vol. 65, pp 55-63 (1983). The RAW 264 cells were plated on a 96-well plate at a density of 40,000 cells/100 μl and then incubated for 24 hours. After the 24-hour incubation, 50 μl of a culture medium containing a three-fold concentration of the drug was added and then incubated for 24 hours to investigate the cell-death inducing activity. Two hours before the measurement of the cell-death inducing activity, 15 μl of 0.5% MTT-PBS (phosphate buffer saline) was added and incubated. After that, the residue from which the culture solution was removed was dissolved in 100 μl of DMSO (dimethyl sulfoxide) and the absorbance at 570 nm (a reference wave length of 630 nm) was measured, followed by calculating the ED50 level of the cell-death inducing activity.
(Tetrazolium dyes change colour on reduction, which living cells bring about.)

The test system of test [2] is bone resorption due to parathyroid hormone (PTH). Kind of test: Serum calcium in TPTX rats with hypercalcemia by continuous PTH infusion. It is filed as in vivo, SD rats. Conditions: comparison of calcitonin with reveromycin A derivatives. As to the method: The bone resorption inhibitory effects of the reveromycin A derivatives were examined by measuring the level of serum calcium released in the blood by the action of bone resorption. SD rats were subjected to an operation of extracting the thyroid glands and the parathyroid glands (TPTX). Next day, a decrease in serum calcium was confirmed and then the continuous infusion of the parathyroid hormone (PTH) was carried out, thereby creating rats each having hypercalcemia by accelerating the bone resorption.
At 12 hours from the initiation of PTH injection, the reveromycin A derivatives ([…]) or a sodium salt thereof ([…]) were administered and the level of serum calcium was then measured in time-course for 24 hours.

Positions of bridges follow the written chain, without caps; N, C: chain ends. No end group written: not given here.

In the case of `CCCC[C@@]1(O)CC[C@]2(CC[C@H](C)[C@@H](C/C=C(C)/C=C/[C@H](OC)[C@@H](C)/C=C/C(=O)OC)O2)O[C@H]1/C=C/C(C)=C/C(=O)OC` (mixture of isomers) [Compound 7], in the test with mature osteoclasts, the EC50 was over 51 µM. The CC50 in test [1] is over 169 µM. As to `CCCC[C@@]1(O)CC[C@]2(CC[C@H](C)[C@@H](C/C=C(C)/C=C/[C@H](O)[C@@H](C)/C=C/C(=O)O)O2)O[C@H]1/C=C/C(C)=C/C(=O)O` (mixture of isomers) [Compound 11], the EC50 in the test on mature osteoclasts is 41 µM. In test [1], the CC50 is over 178 µM. In the same order, the values of `CCCC[C@]1(C(/C=C/C(C)=C/C(=O)O)OC(=O)CCC(=O)O)CC[C@]2(CC[C@H](C)[C@@H](C/C=C(C)/C=C/[C@H](O)[C@@H](C)/C=C/C(=O)O)O2)O1` (some centres unmarked) [Compound 1] are over 45 µM and 132 µM. In the case of `CCCC[C@@]1(OC(=O)CCC(=O)O)CC[C@]2(CC[C@H](C)[C@@H](CCO)O2)O[C@H]1/C=C/C(C)=C/C(=O)O` [Compound 3], the EC50 in the test with mature osteoclasts is over 6 µM. For the same molecule, the CC50 in test [1] was over 6 µM.

`CCCC[C@@]1(OC(=O)CCC(=O)O)CC[C@]2(CC[C@H](C)[C@@H](C/C=C(\C)CO)O2)O[C@H]1/C=C/C(C)=C/C(=O)O` [Compound 4]: in the test with mature osteoclasts, the EC50 was over 5.6 µM. Further, the CC50 in test [1] was over 5.6 µM. Take `CCCC[C@@]1(OC(=O)CCC(=O)O)CC[C@]2(CC[C@H](C)[C@@H](C/C=C(\C)COC(=O)CCC(=O)O)O2)O[C@H]1/C=C/C(C)=C/C(=O)O` [Compound 5]: the EC50 in the test with mature osteoclasts is over 47 µM. Also, the CC50 in test [1] is over 157 µM.

As to `CCCC[C@]1([C@@H](O)/C=C/C(C)=C/C(=O)O)CC[C@]2(CC[C@H](C)[C@@H](C/C=C(C)/C=C/[C@H](O)[C@@H](C)/C=C/C(=O)O)O2)O1` [Compound 10], the EC50 in the test on mature osteoclasts was over 54 µM. The CC50 in test [1] is over 178 µM.

Regarding `CCCC[C@@]1(OC(=O)CCC(=O)OC)CC[C@]2(CC[C@H](C)[C@@H](C/C=C(C)/C=C/[C@H](O[Si](C)(C)C(C)(C)C)[C@@H](C)/C=C/C(=O)OC)O2)O[C@H]1/C=C/C(C)=C/C(=O)O` [Compound 12], the EC50 in the test with mature osteoclasts was 0.6 µM. Also, the CC50 in test [1] came out at 1 µM.

For `CCCC[C@@]1(OC(=O)CCC(=O)O)CC[C@]2(CC[C@H](C)[C@@H](C/C=C(C)/C=C/[C@H](O)[C@@H](C)/C=C/C(=O)OC)O2)O[C@H]1/C=C/C(C)=C/C(=O)OC` [Compound 13], the EC50 with mature osteoclasts amounted to 2.5 µM. In test [1], the CC50 amounted to 7.6 µM. In the same order, the values of `CCCC[C@@]1(OC(=O)CCC(=O)OC)CC[C@]2(CC[C@H](C)[C@@H](C/C=C(C)/C=C/[C@H](O)[C@@H](C)/C=C/C(=O)O)O2)O[C@H]1/C=C/C(C)=C/C(=O)OC` [Compound 14] are 3.3 µM and 25 µM. In the same order, the values of `CCCC[C@@]1(OC(=O)CCC(=O)O)CC[C@]2(CC[C@H](C)[C@@H](C/C=C(C)/C=C/[C@H](O)[C@@H](C)/C=C/C(=O)OC)O2)O[C@H]1/C=C/C(C)=C/C(=O)O` [Compound 15] are 5.8 µM and 25 µM.

As for `CCCC[C@@]1(OC(=O)CCC(=O)OC)CC[C@]2(CC[C@H](C)[C@@H](C/C=C(C)/C=C/[C@H](O)[C@@H](C)/C=C/C(=O)OC)O2)O[C@H]1/C=C/C(C)=C/C(=O)OC` [Compound 16], the EC50 in the test on mature osteoclasts turned out to be 26 µM. The CC50 in test [1] is over 142 µM. Consider `CCCC[C@@]1(OC)CC[C@]2(CC[C@H](C)[C@@H](C/C=C/C(C)=C/C(=O)O)O2)O[C@H]1/C=C/C(C)=C/C(=O)O` [Compound 17], for which the EC50 in the test on mature osteoclasts was over 61 µM.

Consider `CCCC[C@@]1(OC(=O)CCC(=O)OC)CC[C@]2(CC[C@H](C)[C@@H](C/C=C(C)/C=C/C(C)O)O2)O[C@H]1/C=C/C(C)=C/C(=O)OC` (some centres unmarked) [Compound 19], for which, in the test with mature osteoclasts, the EC50 came to 36 µM. The CC50 in test [1] was over 50 µM. For `CCCC[C@@]1(OC(=O)CCC(=O)OC)CC[C@]2(CC[C@H](C)[C@@H](C/C=C(C)/C=C/C(O)c3ccccc3)O2)O[C@H]1/C=C/C(C)=C/C(=O)OC` (some centres unmarked) [Compound 20] the same measures were over 45 µM and over 150 µM.

Regarding `CCCC[C@@]1(OC(=O)CCC(=O)OC)CC[C@]2(CC[C@H](C)[C@@H](C/C=C(C)/C=C/[C@H](O)[C@@H](C)/C=C/C(=O)O)O2)O[C@H]1/C=C/C(C)=C/C(=O)O` [Compound 21], the EC50 with mature osteoclasts was found to be 7.3 µM. For the same molecule, in test [1], the CC50 turned out to be 21 µM. For `CCCC[C@@]1(OC(=O)CCC(=O)O)CC[C@]2(CC[C@H](C)[C@@H](C/C=C(C)/C=C/[C@H](O)[C@@H](C)/C=C/C(=O)O)O2)O[C@H]1/C=C/C(C)=C/C(=O)OC` [Compound 22] the same measures were 9.3 µM and 53 µM. As to `CCCC[C@@]1(OC(=O)CCC(=O)O)CC[C@]2(CC[C@H](C)[C@@H](C/C=C(C)/C=C/C(C)O)O2)O[C@H]1/C=C/C(C)=C/C(=O)OC` (some centres unmarked) [Compound 23], the EC50 with mature osteoclasts is over 17 µM. For the same molecule, the CC50 in test [1] is over 17 µM. In the case of `CCCC[C@@]1(OC(=O)CCC(=O)O)CC[C@]2(CC[C@H](C)[C@@H](C/C=C(C)/C=C/C(O)c3ccccc3)O2)O[C@H]1/C=C/C(C)=C/C(=O)OC` (some centres unmarked) [Compound 24], the EC50 in the test on mature osteoclasts was over 15 µM. Moreover, in test [1], the CC50 was over 15 µM. As for `CCCC[C@@]1(OC(=O)CCC(=O)O)CC[C@]2(CC[C@H](C)[C@@H](C/C=C(C)/C=C/[C@@H](C)O)O2)O[C@H]1/C=C/C(C)=C/C(=O)OC` [Compound 25], in the test with mature osteoclasts, the EC50 was over 17 µM. Also, the CC50 in test [1] is over 17 µM. In the case of `CCCC[C@@]1(OC(=O)CCC(=O)O)CC[C@]2(CC[C@H](C)[C@@H](C/C=C(C)/C=C/[C@H](OC)[C@@H](C)/C=C/C(=O)O)O2)O[C@H]1/C=C/C(C)=C/C(=O)O` [Compound 26], the EC50 in the test on mature osteoclasts is over 44 µM. For the same molecule, the CC50 in test [1] is over 148 µM. For `CCCC[C@@]1(OC)CC[C@]2(CC[C@H](C)[C@@H](C/C=C(C)/C=C/[C@H](O)[C@@H](C)/C=C/C(=O)O)O2)O[C@H]1/C=C/C(C)=C/C(=O)O` [Compound 1390-II], in the test with mature osteoclasts, the EC50 was over 5.2 µM. Consider `CCCC[C@]1(C(/C=C/C(C)=C/C(=O)O)OC)CC[C@]2(CC[C@H](C)[C@@H](C/C=C(C)/C=C/[C@H](O)[C@@H](C)/C=C/C(=O)O)O2)O1` (some centres unmarked) [Compound 1392-II], for which, in the test with mature osteoclasts, the EC50 was over 52 µM. Further, in test [1], the CC50 was over 174 µM. For `CCCC[C@@]1(OC(=O)CCC(=O)O)CC[C@]2(CC[C@H](C)[C@@H](C/C=C(C)/C=C/[C@H](O)[C@@H](C)/C=C/C(=O)O)O2)O[C@H]1/C=C/C(C)=C/C(=O)O` [Reveromycin A, reveromycin A, reference compound] the same measures were 0.18 µM and 24 µM. For the molecule “calcitonin (CGNLSTCMLGTYTQDFNKFHTFPQTAIGVGAP-NH2; disulfide 1-7; ends not checked; UniProt P01258 85-116, looked up) [reference compound]”, the “duration of inhibitory action on bone resorption” value in test [2] was “shorter inhibitory action on bone resorption”.

Values taken from patent US20060173069A1, “Therapeutic agent for hyperpotassemia and bone disease” (RIKEN, priority 2003, published 2006).
